Data reported in patent publication US4273869A, “Cystic fibrosis detection method” (The Regents of the University of Minnesota, priority 1979, dated 1981).

Test system: fibroblasts from CF subjects, heterozygote carriers and controls
Experiment: O2 consumption of skin fibroblast suspensions measured polarographically, with electron transport inhibitors
Format: cell-based, human
Description: Skin fibroblast strains from the upper arm were obtained from subjects with CF and age- and sex-matched controls and from obligate CF heterozygote parents and their age- and sex-matched controls. Cells were stored in liquid nitrogen at early passages and thawed for use as needed. In all but a few experiments, strains were passage matched. For O2 consumption studies and mitochondrial preparations, monolayers were grown in 285×115 mm roller bottles (Bellco Glass, N.J.). For NADH dehydrogenase studies, monolayers were grown in 75 cm^2 flasks (Falcon, Oxnard, Ca.). Monolayers were cultured in Eagle's minimal essential medium with Earle's salts plus L-glutamine (K. C. Biologicals, Inc., Lenexa, Kans.), supplemented with 10 percent fetal calf serum, 100 units per ml of penicillin, and 100 μg/ml of streptomycin (Gibco, Grand Island, N.Y.). The cultures were maintained at 37° in 95 percent air-5 percent CO2 atmosphere. Cells were harvested with trypsin-EDTA [(1:250 tryspin+0.2 g EDTA/1 (Gibco, Grand Island, N.Y.)].
Confluent monolayers of fibroblasts as prepared in Example 1 were harvested by trypsin-EDTA digestion. Cells were pelleted by centrifugation at 600×g for 5 min, washed with 10 ml of cold Hank's Balanced Salt Solution (HBSS) containing 0.1 mg/ml bovine serum albumin and 10 mg/ml dextrose, pH 7.4. 100 μl aliquots of the washed cell suspension were taken for cell counting using a ZBI Coulter Counter. The washed cells were again pelleted by centrifugation and resuspended in 1 ml cold HBSS. O2 consumption was measured polarographically on a cell suspension of 1×10^7 cells in a final volume of 3 ml by an O2 electrode system (Clark model 53, Yellow Springs Instruments, Ohio). […] In these experiments the baseline O2 uptake rate was determined for each cell line. Prior to removing the cells from the electrode chamber, 100 μl of 100 μ M rotenone were added and O2 consumption recorded. […]
The change in O2 consumption rate caused by rotenone was recorded as percent of initial O2 consumption rate. Each point represents percent inhibition measured on one cell strain.

C=C(C)[C@H]1Cc2c(ccc3c2O[C@@H]2COc4cc(OC)c(OC)cc4[C@@H]2C3=O)O1 [rotenone]
Inhibition of O2 consumption (change in O2 consumption rate as percent of initial rate) (100 μl of 100 μM rotenone added to 1×10^7 cells in 3 ml, all cell strains tested): inhibited O2 consumption in all cell strains tested
Relative inhibitory effect on O2 consumption among genotypes (100 μl of 100 μM rotenone, CF, HZ (carrier) and control fibroblast strains, FIG. 5): CF>HZ>controls
O2 consumption after treatment with the inhibitor, compared between genotypes (cells treated with rotenone, CF subjects, carriers, controls): cells from cystic fibrosis subjects and carriers consume equal amounts of oxygen, as do controls
